The term IC50 denotes the concentration that inhibits the measured activity by half.

The text below walks through data of patent US10227323B2, “Glucosylceramide synthase inhibitors for the treatment of diseases” (BIOMARIN PHARMACEUTICAL INC., priority 2013, dated 2019).

Read-outs that look alike come from different tables or passages of the source.

For the assay, the target named is T1, GCS (Canis lupus familiaris, UniProt A0A8I3MXG6).
T1 sequence (A0A8I3MXG6 1-394): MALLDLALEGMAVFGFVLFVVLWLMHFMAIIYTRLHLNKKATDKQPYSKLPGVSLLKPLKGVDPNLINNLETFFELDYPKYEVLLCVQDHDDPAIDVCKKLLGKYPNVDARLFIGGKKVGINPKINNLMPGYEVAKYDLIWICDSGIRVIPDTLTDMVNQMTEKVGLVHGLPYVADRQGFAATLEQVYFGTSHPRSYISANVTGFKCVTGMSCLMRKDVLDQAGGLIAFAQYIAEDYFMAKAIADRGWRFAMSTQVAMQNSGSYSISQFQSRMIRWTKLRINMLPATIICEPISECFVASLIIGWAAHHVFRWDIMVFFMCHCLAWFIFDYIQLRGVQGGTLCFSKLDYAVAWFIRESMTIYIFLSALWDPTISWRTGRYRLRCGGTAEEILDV
Put plainly: Assay 1: GCS Enzymatic Assay (MDCK cell lysate, C6-NBD-Ceramide, LC/MS). The assay is classed as biochemical, canine. Conditions: for IC50: read-out: IC50 (nM) generated from Assay 1. The essentials:
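LC/MS/MS measurement of glucosylceramide and NBD-ceramide after a 1 h, 37 °C reaction with 100 μM UDP-glucose and 10 μM C6-NBD-ceramide gave IC50s or percent inhibition.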

The mark [1] stands for this setting: Table 1, values marked *, MDCK cell lysate.

Regarding `O=C(N[C@H](CN1CCCC1)[C@H](O)c1ccc(OC2CC2)c(Cl)c1)C(F)(F)C1Cc2ccc(Cl)cc2C1` (stereo partly drawn) [Compound 67, 2-(5-chloro-2,3-dihydro-1H-inden-2-yl)-N-((1R,2R)-1-(3-chloro-4-cyclopropoxyphenyl)-1-hydroxy-3-(pyrrolidin-1-yl)propan-2-yl)-2,2-difluoroacetamide], under “Table 1, MDCK cell lysate”, the IC50 is below 50 nM.
As to `O=C(N[C@H](CN1CCCC1)[C@H](O)c1cc2cc(Cl)ccc2o1)C(F)(F)c1cc2cc(Cl)ccc2o1` [Compound 68, 2-(5-chlorobenzofuran-2-yl)-N-((1S,2R)-1-(5-chlorobenzofuran-2-yl)-1-hydroxy-3-(pyrrolidin-1-yl)propan-2-yl)-2,2-difluoroacetamide], under setting [1], the “% inhibition generated from Assay 1” value is given as “B* (the compound had a % inhibition of greater than or equal to about 3% but less than about 50%)”.
In the case of `O=C(N[C@H](CN1CCCC1)[C@@H](O)c1cc2cc(Cl)ccc2o1)C(F)(F)c1cc2cc(Cl)ccc2o1` [Compound 68G, 2-(5-chlorobenzofuran-2-yl)-N-((1R,2R)-1-(5-chlorobenzofuran-2-yl)-1-hydroxy-3-(pyrrolidin-1-yl)propan-2-yl)-2,2-difluoroacetamide], the “% inhibition generated from Assay 1” value under setting [1] is “B* (the compound had a % inhibition of greater than or equal to about 3% but less than about 50%)”.
Regarding `O=C(N[C@H](CN1CCCC1)[C@H](O)c1ccc(OC2CC2)c(Cl)c1)C(F)(F)c1cc2cc(C(F)(F)F)ccc2o1` [Compound 69, N-((1R,2R)-1-(3-chloro-4-cyclopropoxyphenyl)-1-hydroxy-3-(pyrrolidin-1-yl)propan-2-yl)-2,2-difluoro-2-(5-(trifluoromethyl)benzofuran-2-yl)acetamide], the IC50 (Table 1, MDCK cell lysate) is below 50 nM.
In the case of `O=C(N[C@H](CN1CCCC1)[C@@H](O)c1ccc(OC2CC2)c(Cl)c1)C(F)(F)c1cc2cc(C(F)(F)F)ccc2o1` [Compound 69A, N-((1S,2R)-1-(3-chloro-4-cyclopropoxyphenyl)-1-hydroxy-3-(pyrrolidin-1-yl)propan-2-yl)-2,2-difluoro-2-(5-(trifluoromethyl)benzofuran-2-yl)acetamide], for the setting “Table 1, MDCK cell lysate”, the IC50 lay in the range of 50 to 5000 nM.
For `O=C(N[C@H](CN1CCCC1)[C@H](O)c1ccc2c(c1)OCCO2)C(=O)C1Cc2ccccc2C1` [Compound 70, 2-(2,3-dihydro-1H-inden-2-yl)-N-((1R,2R)-1-(2,3-dihydrobenzo[b][1,4]dioxin-6-yl)-1-hydroxy-3-(pyrrolidin-1-yl)propan-2-yl)-2-oxoacetamide], where the note is “Table 1, MDCK cell lysate”, the IC50 was below 50 nM.
On to `O=C(N[C@H](CN1CCCC1)[C@H](O)c1ccc2c(c1)OCCO2)C(=O)c1cc2cc(Cl)ccc2o1` [Compound 71, 2-(5-chlorobenzofuran-2-yl)-N-((1R,2R)-1-(2,3-dihydrobenzo[b][1,4]dioxin-6-yl)-1-hydroxy-3-(pyrrolidin-1-yl)propan-2-yl)-2-oxoacetamide], for which the IC50 (Table 1, MDCK cell lysate) is below 50 nM.
As to `O=C(N[C@H](CN1CCCC1)[C@H](O)c1ccc2c(c1)OCCO2)/C(=N/O)c1cc2cc(Cl)ccc2o1` [Compound 72, (E)-2-(5-chlorobenzofuran-2-yl)-N-((1R,2R)-1-(2,3-dihydrobenzo[b][1,4]dioxin-6-yl)-1-hydroxy-3-(pyrrolidin-1-yl)propan-2-yl)-2-(hydroxyimino)acetamide], where the note is “Table 1, MDCK cell lysate”, the IC50 is below 50 nM.
On to `O=C(N[C@H](CN1CCCC1)[C@H](O)c1ccc2c(c1)OCCO2)C(=O)C1Cc2ccc(-c3ccccn3)cc2C1` (stereo partly drawn) [Compound 73, N-((1R,2R)-1-(2,3-dihydrobenzo[b][1,4]dioxin-6-yl)-1-hydroxy-3-(pyrrolidin-1-yl)propan-2-yl)-2-oxo-2-(5-(pyridin-2-yl)-2,3-dihydro-1H-inden-2-yl)acetamide], for which the IC50 (Table 1, MDCK cell lysate) is below 50 nM.
On to `O=C(N[C@H](CN1CCCC1)[C@H](O)c1ccc2c(c1)OCCO2)C(=O)C1Cc2ccc(Cl)cc2C1` (stereo partly drawn) [Compound 74, 2-(5-chloro-2,3-dihydro-1H-inden-2-yl)-N-((1R,2R)-1-(2,3-dihydrobenzo[b][1,4]dioxin-6-yl)-1-hydroxy-3-(pyrrolidin-1-yl)propan-2-yl)-2-oxoacetamide], for which the IC50 (Table 1, MDCK cell lysate) is below 50 nM.
In the case of `O=C(N[C@H](CN1CCCC1)[C@H](O)c1ccc2c(c1)OCCO2)C(=O)c1[nH]cc2c1CCCC2` [Compound 77, N-((1R,2R)-1-(2,3-dihydrobenzo[b][1,4]dioxin-6-yl)-1-hydroxy-3-(pyrrolidin-1-yl)propan-2-yl)-2-oxo-2-(4,5,6,7-tetrahydro-2H-isoindol-1-yl)acetamide], the “% inhibition generated from Assay 1” value (Table 2, data marked by *) is reported as “B* (the compound had a % inhibition of greater than or equal to about 3% but less than about 50%)”.
Consider `O=C(N[C@H](CN1CCC1)[C@H](O)c1ccc2c(c1)OCCO2)C(=O)c1cc2cc(Cl)ccc2o1` [Compound 78, N-((1R,2R)-3-(azetidin-1-yl)-1-(2,3-dihydrobenzo[b][1,4]dioxin-6-yl)-1-hydroxypropan-2-yl)-2-(5-chlorobenzofuran-2-yl)-2-oxoacetamide], for which the IC50 (Table 2, data without asterisk) was below 50 nM.
On to `O=C(N[C@H](CN1CCCC1)[C@H](O)c1ccc(OC2CC2)c(Cl)c1)C(=O)c1cc2cc(Cl)ccc2o1` [Compound 79, N-((1R,2R)-1-(3-chloro-4-cyclopropoxyphenyl)-1-hydroxy-3-(pyrrolidin-1-yl)propan-2-yl)-2-(5-chlorobenzofuran-2-yl)-2-oxoacetamide], for which the IC50 (Table 2, data without asterisk) is below 50 nM.
On the same count and under the same terms, the figure for `O=C(N[C@H](CN1CCCC1)[C@H](O)c1ccc(OC2CC2)c(Cl)c1)C(F)(F)CCc1ccc2cc(F)ccc2c1` [Compound 82, N-((1R,2R)-1-(3-chloro-4-cyclopropoxyphenyl)-1-hydroxy-3-(pyrrolidin-1-yl)propan-2-yl)-2,2-difluoro-4-(6-fluoronaphthalen-2-yl)butanamide] is below 50 nM; for `O=C(N[C@H](CN1CCC1)[C@H](O)c1cc(F)c2c(c1)OCCO2)C(F)(F)c1cc2cc(Cl)ccc2o1` [Compound 83, N-((1R,2R)-3-(azetidin-1-yl)-1-(8-fluoro-2,3-dihydrobenzo[b][1,4]dioxin-6-yl)-1-hydroxypropan-2-yl)-2-(5-chlorobenzofuran-2-yl)-2,2-difluoroacetamide] it is below 50 nM; for `O=C(N[C@H](CN1CCCC1)[C@H](O)c1ccc2c(c1)OCCO2)C(F)(F)CCc1ccc2cc(F)ccc2c1` [Compound 84, N-((1R,2R)-1-(2,3-dihydrobenzo[b][1,4]dioxin-6-yl)-1-hydroxy-3-(pyrrolidin-1-yl)propan-2-yl)-2,2-difluoro-4-(6-fluoronaphthalen-2-yl)butanamide] it is below 50 nM.
For `O=C(N[C@H](CN1CCCC1)[C@H](O)c1ccc(OCC(F)(F)F)nc1)C(F)(F)c1cc2cc(Cl)ccc2o1` [Compound 85, 2-(5-chlorobenzofuran-2-yl)-2,2-difluoro-N-((1R,2R)-1-hydroxy-3-(pyrrolidin-1-yl)-1-(6-(2,2,2-trifluoroethoxy)pyridin-3-yl)propan-2-yl)acetamide], the IC50 (Table 2, data without asterisk) was below 50 nM.
Take `O=C(N[C@H](CN1CCC1)[C@H](O)c1cc(F)c2c(c1)OCCO2)C(F)(F)CCc1ccc2cc(F)ccc2c1` [Compound 86, N-((1R,2R)-3-(azetidin-1-yl)-1-(8-fluoro-2,3-dihydrobenzo[b][1,4]dioxin-6-yl)-1-hydroxypropan-2-yl)-2,2-difluoro-4-(6-fluoronaphthalen-2-yl)butanamide]: where the note is “Table 2, data without asterisk”, the IC50 was below 50 nM.
